Consider six molecules from patent publication US5591715A, “Methods and compositions for reducing multidrug resistance” (priority 1995, dated 1997).

Series [1] is described as follows: in vitro. The settings on record: human, k562/iii cells. As to the method:
The chromogenic substrate, MTT (Sigma), was used to enumerate viable cells. […] For the Resistance Modification Index (RMI, Eliason et al., 1990), cells were prepared in microtiter plates and incubated with the indicated drugs and RMA. RMI was calculated as the IC50 of drug alone/IC50 of drug+RMA. The average RMI was calculated from at least three independent assays.
Growth is related as % relative to untreated cells.

The nature of series [2]: In vivo tolerability of RMA. The settings on record: dosages achieving equivalent or superior reversal of MDR vs verapamil.
Series [3] concerns multidrug resistant cells. The settings on record: cited from earlier work.
Series [4] in a line: in vitro. Conditions: human, kb 3-1 cells.
Series [5] can be described thus: in vitro. Conditions: human, kb 8-5 cells.
The nature of series [6]: in vitro. Conditions: human, kb 8-5-11 cells.
For series [7], the system named is KB 8-5-11 cells. Kind of series: cells. In kind it is cell-based. The settings on record: Homo sapiens, 1 h, Table V, read-out: MFI (T/U), treated cells/untreated cells; for fold induction at 100 µg/mL: KB8-5-11, 100 μg/ml. An excerpt: A series of PEG domains of average MW 600, 900 or 1500 was synthesized.
For series [8], the system named is KB 8-5-11 cells. Put plainly: Relative RMA activity: percent KB 8-5-11 (MDR) cells showing rhodamine 123 fluorescence in the range of sensitive KB 3-1 cells. In kind it is cell-based, human. The settings on record: Table V, none = 0.6. On the procedure: Efflux of rhodamine 123 from MDR cells was also examined to provide direct information about the action of the transport protein Mdr 1. Enhanced accumulation of the P-gp substrate, rhodamine 123, in multidrug resistant KB 8-5-11 cells was used to measure RMA activity. Flow cytometric analysis was performed as described (Coon et al., 1991; Buckingham et al. 1995). Briefly, multidrug resistant KB 8-5-11 cells (0.5×10^6 cells/ml) were incubated with […] rhodamine 123 at 37° C. in the presence or absence of the putative RMA. After 60 min., mean intracellular steady state rhodamine 123 fluorescence was measured on an Epics Profile How Cytometer (Coulter, Hialeah, Fla.).
SOLUTOL® HS 15 was fractionated using reverse phase liquid chromatography to determine where the activity resides in the preparation. An approximately 50% solution of SOLUTOL® HS 15 was prepared in 100% acetonitrile (ACN) and water. One ml of the SOLUTOL® HS 15 solution was injected onto a Phenomenex IB-Sil reversed phase column. The column has 5 μm particles, and is 4.6 mm internal diameter by 150 mm. The flow rate was 2.0 ml/min. The mobile phase was as follows: A=5% ACN and B=100% ACN. The gradient was linear with 100% A to 100% B in 15 minutes, then was maintained at 100% B. Fractions were collected at 30 second intervals. The various fractions were assayed for RMA activity as described in Example III. […] 145-149, 1989.
The various fractions obtained from the reverse phase liquid chromatography were analyzed to determine the RMA activity in each fraction. The fractions were then analyzed by infrared spectrophotometry.
^a Percent cells KB85-11 (MDR) showing rhodamine 123 fluorescence in
the range of sensitive cell (KB31) in the same experiment.
CREMOPHOR® EL was fractionated by super critical extraction. Approximately 25 grams of CREMOPHOR® EL was thoroughly mixed with 20 grams of hydromatrix (silicon dioxide) manufactured by Varian--Harbor City, Calif. 40710 and loaded into a stainless steel high pressure extraction cell. The extraction cell was maintained at 40° C. Supercritical carbon dioxide was pumped into the extraction cell at a rate of approximately 3 liters of gaseous carbon dioxide per minute (4 ml of supercritical carbon dioxide per minute). The extractable material was dissolved under the extraction conditions, and separated from the matrix. The supercritical carbon dioxide solution with dissolved component was then depressurized to evaporate the carbon dioxide gas, and to precipitate the solute. […]
^a Percent KB 85-11 (MDR) cells showing rhodamine 123 fluorescence in
The RMA activity of various fatty acids, PEG monoesters and PEG diesters was determined by the method described in Example III. […]

A further series has as its system KB 3-1 cells. Kind of series: cells. Conditions: Homo sapiens, KB 3-1, 1 h, Table V, read-out: MFI (T/U), treated cells/untreated cells; for fold induction at 100 µg/mL: KB3-1, 100 μg/ml. In kind it is cell-based.
The subject of a further series is Mdr1 protein. The settings on record: cited from earlier work.

≈ marks a conversion by molar mass, not a printed value.

As to `COc1ccc(CCN(C)CCCC(C#N)(c2ccc(OC)c(OC)c2)C(C)C)cc1OC` (stereo not shown) [Verapamil], the cytotoxic concentration (CC50) at 72 h was determined as 38 µg/mL (≈ 83.6 µM) in “in vitro [1]”, 40 µg/mL (≈ 88 µM) in “in vitro [4]”, 10 µg/mL (≈ 22 µM) in the series “in vitro [5]” and 27 µg/mL (≈ 59.4 µM) in “in vitro [6]”. Moreover, in [2], the in vivo tolerability result is listed as “marked toxicity”. Moreover, the “effect against VP-16 multidrug resistance (literature)” value in series [3] is reported as “not effective against VP-16 multidrug resistance”. The “intracellular localization of doxorubicin with added agent (literature)” value in series [3] (drug resistant cells) is “doxorubicin is localized mainly in the nucleus in drug resistant cells”.
As for `CCCCCCCCCCCCCCCCCC(=O)O` [Stearic Acid], the fold induction at 100 µg/mL in the series on KB 8-5-11 cells [7] stood at 1.4; in the series with KB 3-1 cells, 1.9. Moreover, the “Relative RMA Activity” value in the series with KB 8-5-11 cells [8] (100 μg/ml) worked out at 2.1%.
For `CCCCCCCC/C=C\CCCCCCCC(=O)O` [Oleic Acid], the fold induction at 100 µg/mL was 1.7 with KB 8-5-11 cells [7] and 2.1 in the series with KB 3-1 cells. Besides, the “Relative RMA Activity” value with KB 8-5-11 cells [8] (100 μg/ml) is recorded as 2.7%.
With `[N-]=[N+]=[N-]` [azide], in [3] (in vitro), the “RMA activity / reversal of multidrug resistance (literature)” value is “reverse multidrug resistance in vitro”.
Take `COc1cc2c(c(OC)c1OC)-c1ccc(OC)c(=O)cc1[C@@H](NC(C)=O)CC2` [Colchicine, colchicine]: in the series on Mdr1 protein, the “competition for vinblastine binding” value is “does not compete for vinblastine binding” and the “interaction with identified drug-binding site on Mdr1 protein” value is “interact weakly with the identified drug-binding site on the Mdr1 protein”.
With `CC/C=C\C/C=C\C/C=C\CCCCCCCC(=O)O` [Linolenic Acid], the fold induction at 10 µg/mL with KB 8-5-11 cells [7] (KB8-5-11, 10 μg/ml) is 0.9; in the series with KB 3-1 cells (KB3-1, 10 μg/ml), 1.2. Besides, the fold induction at 100 µg/mL with KB 8-5-11 cells [7] and in the series with KB 3-1 cells was 1.7 each time. In addition, the figures for the “Relative RMA Activity” value in the series on KB 8-5-11 cells [8] (10 μg/ml) and in the series with KB 8-5-11 cells [8] (100 μg/ml) were 1.3% and 9.2%, respectively.

As a reminder, the CC50 is the concentration giving 50% cytotoxicity. Lower therefore signals harm at low concentration.
